Measurements: US9295673B2, “Combination of mTOR inhibitors and P13-kinase inhibitors, and uses thereof” (Intellikine LLC, priority 2011, dated 2016)
Read-outs that look alike come from different tables or passages of the source.

Key:
[1] = target: PI3K α (Homo sapiens, UniProt P42336); experiment: PI 3-Kinase (human) HTRF assay, PI3K α
[2] = target: PI3K δ (Homo sapiens, UniProt O00329); experiment: PI 3-Kinase (human) HTRF assay, PI3K δ
[3] = target: PI3K γ (Homo sapiens, UniProt P48736); experiment: PI 3-Kinase (human) HTRF assay, PI3K γ
Chain of PI3K γ (P48736 whole entry): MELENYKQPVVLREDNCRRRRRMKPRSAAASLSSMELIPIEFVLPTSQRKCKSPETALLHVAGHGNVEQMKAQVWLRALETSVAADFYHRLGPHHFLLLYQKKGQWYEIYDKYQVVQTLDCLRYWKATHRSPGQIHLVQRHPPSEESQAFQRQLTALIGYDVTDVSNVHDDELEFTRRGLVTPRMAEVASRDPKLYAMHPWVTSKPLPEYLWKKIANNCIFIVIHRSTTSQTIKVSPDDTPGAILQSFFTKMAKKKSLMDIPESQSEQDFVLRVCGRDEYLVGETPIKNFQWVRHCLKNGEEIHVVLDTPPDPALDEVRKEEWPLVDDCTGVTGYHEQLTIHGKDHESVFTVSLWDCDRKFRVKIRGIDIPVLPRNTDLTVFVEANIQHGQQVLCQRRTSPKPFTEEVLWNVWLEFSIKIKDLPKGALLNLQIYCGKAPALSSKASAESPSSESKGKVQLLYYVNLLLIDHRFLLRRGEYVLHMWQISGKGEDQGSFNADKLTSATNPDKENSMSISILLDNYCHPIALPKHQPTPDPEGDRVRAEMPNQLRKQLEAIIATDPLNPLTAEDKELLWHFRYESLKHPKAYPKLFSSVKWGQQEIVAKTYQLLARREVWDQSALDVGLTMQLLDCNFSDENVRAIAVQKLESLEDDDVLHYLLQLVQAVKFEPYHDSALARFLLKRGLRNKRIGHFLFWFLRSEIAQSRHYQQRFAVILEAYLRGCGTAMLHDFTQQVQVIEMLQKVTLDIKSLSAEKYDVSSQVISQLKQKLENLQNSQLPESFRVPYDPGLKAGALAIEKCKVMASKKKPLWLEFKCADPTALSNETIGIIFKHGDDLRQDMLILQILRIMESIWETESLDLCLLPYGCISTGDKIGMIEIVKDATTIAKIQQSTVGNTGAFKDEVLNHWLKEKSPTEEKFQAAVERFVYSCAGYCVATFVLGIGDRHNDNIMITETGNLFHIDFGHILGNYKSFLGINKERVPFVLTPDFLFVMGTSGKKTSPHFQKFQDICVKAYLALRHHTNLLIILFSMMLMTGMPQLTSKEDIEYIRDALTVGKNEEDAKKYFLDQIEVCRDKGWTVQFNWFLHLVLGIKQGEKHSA
Description: An exemplary system is PI 3-Kinase (human) HTRF™ Assay from Upstate. […] Briefly, the assay is a time resolved FRET assay that indirectly measures PIP3 product formed by the activity of a PI3-K. The kinase reaction is performed in a microtitre plate (e.g., a 384 well microtitre plate). The total reaction volume is approximately 20 ul per well. In the first step, each well receives 2 ul of test compound in 20% dimethylsulphoxide resulting in a 2% DMSO final concentration. […] The plate is sealed and incubated for 15 minutes at room temperature. […] The plate is sealed and incubated for 1 hour at room temperature. The reaction is stopped by adding 5 ul of Stop Solution per well and then 5 ul of Detection Mix is added per well. The plate is sealed, incubated for 1 hour at room temperature, and then read on an appropriate plate reader. Data is analyzed and IC50s are generated using GraphPad Prism 5.

[4] = target: PI3K β (Homo sapiens, UniProt P42338); experiment: PI 3-Kinase (human) HTRF assay, PI3K β; settings: read-out: PI3K β IC50
Chain of PI3K β (P42338 whole entry): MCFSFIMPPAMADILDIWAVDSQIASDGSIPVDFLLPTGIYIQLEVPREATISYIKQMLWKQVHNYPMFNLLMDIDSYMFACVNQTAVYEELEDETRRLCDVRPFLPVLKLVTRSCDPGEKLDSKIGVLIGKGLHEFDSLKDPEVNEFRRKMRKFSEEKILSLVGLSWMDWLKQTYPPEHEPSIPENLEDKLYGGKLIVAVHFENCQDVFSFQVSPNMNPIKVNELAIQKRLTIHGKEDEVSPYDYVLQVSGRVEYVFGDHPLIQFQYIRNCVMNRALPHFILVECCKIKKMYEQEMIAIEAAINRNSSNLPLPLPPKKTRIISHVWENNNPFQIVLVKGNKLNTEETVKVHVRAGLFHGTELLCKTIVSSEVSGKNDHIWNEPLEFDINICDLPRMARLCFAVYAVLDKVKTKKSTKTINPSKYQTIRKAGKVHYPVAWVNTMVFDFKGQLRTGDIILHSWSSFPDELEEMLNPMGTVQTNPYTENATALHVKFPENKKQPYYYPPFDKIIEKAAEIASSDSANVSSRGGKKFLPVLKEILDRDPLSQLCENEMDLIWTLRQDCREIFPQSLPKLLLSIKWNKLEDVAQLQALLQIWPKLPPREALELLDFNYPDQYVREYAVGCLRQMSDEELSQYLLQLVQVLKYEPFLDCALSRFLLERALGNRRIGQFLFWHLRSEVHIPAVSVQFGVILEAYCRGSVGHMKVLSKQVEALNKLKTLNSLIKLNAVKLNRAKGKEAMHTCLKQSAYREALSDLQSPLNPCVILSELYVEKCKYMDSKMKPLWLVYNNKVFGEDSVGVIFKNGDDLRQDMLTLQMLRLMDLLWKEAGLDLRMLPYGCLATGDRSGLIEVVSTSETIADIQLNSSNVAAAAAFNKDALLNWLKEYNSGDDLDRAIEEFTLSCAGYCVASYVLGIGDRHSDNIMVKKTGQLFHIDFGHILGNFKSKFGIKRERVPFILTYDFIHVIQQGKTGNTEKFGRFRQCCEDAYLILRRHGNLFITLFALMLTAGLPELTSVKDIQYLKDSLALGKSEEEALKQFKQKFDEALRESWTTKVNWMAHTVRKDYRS
Chain of PI3K β (P27986 whole entry partner): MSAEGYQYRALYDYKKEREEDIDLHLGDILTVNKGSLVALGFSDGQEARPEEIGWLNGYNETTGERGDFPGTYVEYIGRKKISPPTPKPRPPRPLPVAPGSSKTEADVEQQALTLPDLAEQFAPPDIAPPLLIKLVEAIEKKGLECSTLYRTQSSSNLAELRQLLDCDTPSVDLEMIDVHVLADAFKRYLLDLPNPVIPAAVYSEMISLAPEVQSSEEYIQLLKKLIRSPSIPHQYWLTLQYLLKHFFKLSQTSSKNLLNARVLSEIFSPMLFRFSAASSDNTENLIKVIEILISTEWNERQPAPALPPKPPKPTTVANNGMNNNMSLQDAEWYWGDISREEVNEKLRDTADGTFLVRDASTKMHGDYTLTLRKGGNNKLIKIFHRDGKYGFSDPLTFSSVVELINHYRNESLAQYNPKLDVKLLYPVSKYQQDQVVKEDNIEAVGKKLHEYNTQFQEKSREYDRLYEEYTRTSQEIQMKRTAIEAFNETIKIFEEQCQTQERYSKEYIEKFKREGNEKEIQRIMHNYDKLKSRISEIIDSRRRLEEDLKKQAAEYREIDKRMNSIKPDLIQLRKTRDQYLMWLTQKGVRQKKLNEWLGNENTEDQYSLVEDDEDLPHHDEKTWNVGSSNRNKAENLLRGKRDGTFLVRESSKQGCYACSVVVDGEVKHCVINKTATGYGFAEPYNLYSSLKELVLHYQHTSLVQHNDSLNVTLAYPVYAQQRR

[5] = read-out: PI3K α IC50, in vitro
[6] = read-out: PI3K δ IC50, in vitro

Chain of PI3K α (P42336 whole entry): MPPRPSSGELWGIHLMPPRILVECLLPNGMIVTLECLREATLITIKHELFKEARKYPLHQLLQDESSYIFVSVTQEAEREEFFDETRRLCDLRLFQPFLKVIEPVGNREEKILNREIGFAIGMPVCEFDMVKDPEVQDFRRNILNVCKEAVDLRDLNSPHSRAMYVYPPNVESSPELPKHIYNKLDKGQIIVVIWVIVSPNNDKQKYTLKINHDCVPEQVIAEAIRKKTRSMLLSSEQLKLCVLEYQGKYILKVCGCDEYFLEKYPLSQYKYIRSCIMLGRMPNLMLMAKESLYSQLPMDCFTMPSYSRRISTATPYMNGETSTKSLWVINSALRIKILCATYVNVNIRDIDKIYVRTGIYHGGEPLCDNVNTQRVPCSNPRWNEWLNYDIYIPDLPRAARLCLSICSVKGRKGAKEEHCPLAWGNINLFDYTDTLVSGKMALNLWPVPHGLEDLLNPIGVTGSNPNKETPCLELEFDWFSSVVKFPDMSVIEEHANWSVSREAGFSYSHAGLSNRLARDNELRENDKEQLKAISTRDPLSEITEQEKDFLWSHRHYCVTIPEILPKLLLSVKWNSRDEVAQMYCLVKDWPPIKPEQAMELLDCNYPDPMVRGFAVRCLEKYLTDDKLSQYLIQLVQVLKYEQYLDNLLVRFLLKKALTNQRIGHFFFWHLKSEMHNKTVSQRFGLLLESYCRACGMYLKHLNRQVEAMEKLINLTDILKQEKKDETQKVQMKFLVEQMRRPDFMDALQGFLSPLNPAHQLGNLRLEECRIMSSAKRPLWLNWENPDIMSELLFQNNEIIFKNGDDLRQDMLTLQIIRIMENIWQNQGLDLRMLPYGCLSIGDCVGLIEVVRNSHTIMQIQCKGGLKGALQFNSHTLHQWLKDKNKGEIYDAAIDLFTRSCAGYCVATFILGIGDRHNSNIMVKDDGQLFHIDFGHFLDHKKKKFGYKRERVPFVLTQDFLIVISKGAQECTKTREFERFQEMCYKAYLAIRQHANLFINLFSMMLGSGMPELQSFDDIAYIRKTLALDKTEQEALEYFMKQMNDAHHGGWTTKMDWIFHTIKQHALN
Chain of PI3K α (P27986 whole entry partner): as the sequence (P27986 whole entry partner) above
Chain of PI3K δ (O00329 whole entry): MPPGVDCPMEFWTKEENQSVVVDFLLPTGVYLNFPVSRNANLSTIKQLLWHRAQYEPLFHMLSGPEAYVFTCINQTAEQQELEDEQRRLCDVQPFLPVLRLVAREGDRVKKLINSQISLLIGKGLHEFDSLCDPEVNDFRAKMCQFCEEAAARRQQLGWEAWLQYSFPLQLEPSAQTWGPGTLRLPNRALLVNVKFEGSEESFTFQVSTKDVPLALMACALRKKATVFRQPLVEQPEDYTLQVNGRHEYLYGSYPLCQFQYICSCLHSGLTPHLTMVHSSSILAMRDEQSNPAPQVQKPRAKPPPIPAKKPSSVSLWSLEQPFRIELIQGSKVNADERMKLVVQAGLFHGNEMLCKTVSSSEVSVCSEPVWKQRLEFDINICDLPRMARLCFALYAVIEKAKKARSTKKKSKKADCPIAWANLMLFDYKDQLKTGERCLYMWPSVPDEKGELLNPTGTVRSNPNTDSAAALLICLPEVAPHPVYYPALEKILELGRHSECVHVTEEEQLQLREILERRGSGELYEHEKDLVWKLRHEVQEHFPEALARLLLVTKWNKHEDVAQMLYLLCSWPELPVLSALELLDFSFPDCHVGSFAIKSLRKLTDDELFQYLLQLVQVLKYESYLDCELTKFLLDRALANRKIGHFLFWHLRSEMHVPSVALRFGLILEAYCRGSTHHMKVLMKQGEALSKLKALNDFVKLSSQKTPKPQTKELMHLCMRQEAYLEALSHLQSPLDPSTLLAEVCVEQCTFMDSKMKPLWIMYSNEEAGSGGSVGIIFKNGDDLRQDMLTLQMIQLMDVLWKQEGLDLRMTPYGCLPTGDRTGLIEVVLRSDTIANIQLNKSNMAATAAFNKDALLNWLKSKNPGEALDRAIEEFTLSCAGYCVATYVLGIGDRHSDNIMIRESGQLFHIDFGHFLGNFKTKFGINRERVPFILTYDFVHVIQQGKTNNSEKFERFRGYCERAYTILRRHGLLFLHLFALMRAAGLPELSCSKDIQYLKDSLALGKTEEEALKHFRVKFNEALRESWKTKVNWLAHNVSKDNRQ
Chain of PI3K δ (P27986 whole entry partner): as the sequence (P27986 whole entry partner) above

## COC(=O)Nc1noc2ccc(-c3nn(C(C)C)c4ncnc(N)c34)cc12 [Compound 20]
[1]
  IC50: < 10 µM
[2]
  IC50: < 10 µM

## CN1CCC(Oc2ncnc3ccc(-c4ccc5oc(N)nc5c4)cc23)CC1 [Compound 34]
[3]; read-out: PI3K γ IC50
  IC50: < 0.1 µM

## Nc1nc2cc(-c3ccc4ncc(C(=O)N5CCOCC5)n4c3)ccc2o1 [Compound 54]
[1]; read-out: PI3K α IC50
  IC50: < 0.1 µM

## CC(N)C(=O)N1CCN(c2cnc3ccc(-c4ccc5oc(N)nc5c4)cc3n2)CC1 (stereo not drawn) [Compound 134]
[3]; read-out: PI3K γ IC50
  IC50: < 10 µM

## C[C@@H]1CN(c2cnc3ccc(-c4ccc5oc(N)nc5c4)cc3n2)CCN1 [Compound 179]
[2]; read-out: PI3K δ IC50
  IC50: < 10 µM

## NC(=O)[C@H]1CCCN1C(=O)c1cnc2ccc(-c3ccc4oc(N)nc4c3)cn12 [Compound 260]
[3]; read-out: PI3K γ IC50
  IC50: < 10 µM

## Nc1nc2cc(-c3ccc4ncc(C(=O)N5CC[C@H](O)C5)n4c3)ccc2o1 [Compound 264]
[2]; read-out: PI3K δ IC50
  IC50: < 10 µM

## Nc1nc2cc(-c3ccc4ncc(C(=O)N5CC[C@@H](O)C5)n4c3)ccc2o1 [Compound 265]
[2]; read-out: PI3K δ IC50
  IC50: < 10 µM

## CC(C)[C@H](N)C(=O)N1CCN(c2cnc3ccc(-c4ccc5oc(N)nc5c4)cc3n2)CC1 [Compound 269]
[1]; read-out: PI3K α IC50
  IC50: < 0.1 µM
[2]; read-out: PI3K δ IC50
  IC50: < 1 µM
[4]
  IC50: < 1 µM

## CN1CCN(CCNC(=O)c2cnc3ccc(-c4ccc5oc(N)nc5c4)cn23)CC1 [Compound 306]
[1]; read-out: PI3K α IC50
  IC50: < 0.1 µM
[2]; read-out: PI3K δ IC50
  IC50: < 1 µM
[4]
  IC50: < 1 µM

## Nc1nc2cc(-c3ccc4ncc(N5CC(N6CC[C@H](O)C6)C5)nc4c3)ccc2o1 [Compound 322]
[2]; read-out: PI3K δ IC50
  IC50: < 10 µM

## C[C@H]1CN(c2cnc3ccc(-c4ccc5oc(N)nc5c4)cc3n2)CCN1C [Compound 332]
[1]; read-out: PI3K α IC50
  IC50: < 1 µM
[2]; read-out: PI3K δ IC50
  IC50: < 10 µM
[4]
  IC50: < 0.1 µM

## CN1CCN([C@H]2CCN(c3cnc4ccc(-c5ccc6oc(N)nc6c5)cc4n3)C2)CC1 [Compound 381]
[2]; read-out: PI3K δ IC50
  IC50: < 10 µM

## C[C@H]1CN(c2cnc3ccc(-c4ccc5oc(N)nc5c4)cc3n2)CCN1 [Compound 396]
[3]
  IC50: < 10 µM
[2]
  IC50: > 10 µM

## O=C(c1cnc2ccc(-c3ccc(Cl)c(NS(=O)(=O)c4ccc(F)cc4F)c3)cn12)N1CCOCC1 [Compound 461]
[1]; [5]
  IC50: < 1 µM
[2]; [6]
  IC50: < 10 µM
[4]; in vitro
  IC50: < 10 µM

## [2H]C1([2H])OC([2H])([2H])C([2H])([2H])N(C(=O)c2cnc3ccc(-c4ccc5oc(N)nc5c4)cn23)C1([2H])[2H] [Compound 529]
[1]; [5]
  IC50: < 1 µM
[2]; [6]
  IC50: > 10 µM
[4]; in vitro
  IC50: > 10 µM

## Cc1ncc(-c2ccc3ncc(C(=O)N4CCOCC4)n3c2)c2cn[nH]c12 [Compound 530]
[2]; [6]
  IC50: < 10 µM

## [2H]c1c(-c2ccc3ncc(C(=O)N4CCOCC4)n3c2)c([2H])c2nc(N)oc2c1[2H] [Compound 531]
[1]; [5]
  IC50: < 0.1 µM
[2]; [6]
  IC50: > 10 µM
[4]; in vitro
  IC50: < 10 µM

## O=C(c1cnc2ccc(-c3cnc4cc[nH]c4c3)cn12)N1CCOCC1 [Compound 534]
[1]; [5]
  IC50: < 10 µM

## Cc1ncc(-c2ccc3ncc(C(=O)N4CCOCC4)n3c2)c2cc[nH]c12 [Compound 536]
[1]; [5]
  IC50: < 10 µM

## C[C@H]1CN(c2cnc3ccc(-c4ccc5oc(N)nc5c4)nc3n2)CCN1 [Compound 552]
[3]; read-out: PI3K γ IC50, Table 4
  IC50: < 10 µM
[2]; read-out: PI3K δ IC50, Table 4
  IC50: < 10 µM

## Nc1nc2cc(-c3ccc4ncc(-c5cccnc5)nc4n3)ccc2o1 [Compound 554]
[4]; Table 4
  IC50: < 10 µM

## CN1CCN(c2cnc3ccc(-c4ccc5oc(N)nc5c4)nc3n2)CC1 [Compound 555]
[3]; read-out: PI3K γ IC50, Table 4
  IC50: < 10 µM
[2]; read-out: PI3K δ IC50
  IC50: < 10 µM

## Nc1nc2cc(-c3ccc4ncc(N5CC(N6CCOCC6)C5)nc4n3)ccc2o1 [Compound 556]
[3]; read-out: PI3K γ IC50, Table 4
  IC50: < 10 µM
[2]; read-out: PI3K δ IC50
  IC50: < 10 µM

## CS(=O)(=O)N1CCN(C2CN(c3cnc4ccc(-c5ccc6oc(N)nc6c5)nc4n3)C2)CC1 [Compound 559]
[2]; read-out: PI3K δ IC50, Table 4
  IC50: < 10 µM

## CCOC(=O)N1CC=C(c2cnc3ccc(-c4ccc5oc(N)nc5c4)nc3n2)CC1 [Compound 560]
[2]; read-out: PI3K δ IC50, Table 4
  IC50: < 10 µM
[4]; Table 4
  IC50: < 10 µM

## C[C@H]1CN(C2CN(c3cnc4ccc(-c5ccc6oc(N)nc6c5)nc4n3)C2)CCN1 [Compound 561]
[3]; read-out: PI3K γ IC50, Table 4
  IC50: < 10 µM
[2]; read-out: PI3K δ IC50, Table 4
  IC50: < 10 µM

## Nc1nc2cc(-c3ccc4ncc(C5=CCOCC5)nc4n3)ccc2o1 [Compound 562]
[4]; Table 4
  IC50: < 10 µM

## C[C@@H]1CN(C2CN(c3cnc4ccc(-c5ccc6oc(N)nc6c5)nc4n3)C2)CCN1 [Compound 563]
[2]; read-out: PI3K δ IC50, Table 4
  IC50: < 10 µM

## C[C@@H]1COCCN1c1cnc2ccc(-c3ccc4oc(N)nc4c3)nc2n1 [Compound 565]
[2]; read-out: PI3K δ IC50, Table 4
  IC50: < 10 µM
[4]; Table 4
  IC50: < 10 µM

## C[C@H]1COCCN1c1cnc2ccc(-c3ccc4oc(N)nc4c3)nc2n1 [Compound 566]
[4]; Table 4
  IC50: < 10 µM

## Nc1nc2cc(-c3ccc4ncc(-c5cccnc5)cc4n3)ccc2o1 [Compound 567]
[2]; read-out: PI3K δ IC50, Table 4
  IC50: < 10 µM
[4]; Table 4
  IC50: < 10 µM

## C[C@H]1CN(C2CN(c3cnc4ccc(-c5ccc6oc(N)nc6c5)nc4n3)C2)CCN1C [Compound 572]
[2]; read-out: PI3K δ IC50, Table 4
  IC50: < 10 µM
